Target: T1, PKC-ε (Homo sapiens, UniProt Q02156)
T1 construct: from tissue; host or cells: blood of a human advanced Alzheimer's disease patient
T1 sequence (Q02156 1-737): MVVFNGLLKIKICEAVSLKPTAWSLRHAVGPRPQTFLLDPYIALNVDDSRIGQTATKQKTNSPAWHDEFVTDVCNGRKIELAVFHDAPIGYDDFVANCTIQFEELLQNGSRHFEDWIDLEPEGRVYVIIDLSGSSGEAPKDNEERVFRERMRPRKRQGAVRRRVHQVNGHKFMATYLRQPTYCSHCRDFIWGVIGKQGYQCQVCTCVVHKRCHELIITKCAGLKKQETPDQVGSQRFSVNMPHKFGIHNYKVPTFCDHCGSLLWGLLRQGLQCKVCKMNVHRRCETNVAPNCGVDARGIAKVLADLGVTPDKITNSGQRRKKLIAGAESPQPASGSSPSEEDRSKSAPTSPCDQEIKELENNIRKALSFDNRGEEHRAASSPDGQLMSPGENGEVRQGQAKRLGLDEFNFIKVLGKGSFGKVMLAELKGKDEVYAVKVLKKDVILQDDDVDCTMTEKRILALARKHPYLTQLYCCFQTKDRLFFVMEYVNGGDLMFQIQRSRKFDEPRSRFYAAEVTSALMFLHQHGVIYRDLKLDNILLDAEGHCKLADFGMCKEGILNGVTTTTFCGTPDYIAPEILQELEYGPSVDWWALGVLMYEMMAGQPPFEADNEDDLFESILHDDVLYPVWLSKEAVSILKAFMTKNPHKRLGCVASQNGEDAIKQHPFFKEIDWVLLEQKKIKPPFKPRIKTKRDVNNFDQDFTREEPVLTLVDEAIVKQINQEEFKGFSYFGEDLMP
Assay: Compassionate use study: PKC-ε level in blood
Assay type: in vivo
Details: advanced AD patient blood, weekly dose of 25 μg/m^2, three consecutive weeks
Description: FIG. 1 illustrates, inter alia, the level of PKCε in the blood of a human subject receiving 25 μg/m^2 of bryostatin as a single weekly dose for three consecutive weeks followed by cessation of dosing for one week and then two additional weeks of dosing at 25 μg/m^2.
FIG. 1 illustrates early results of a compassionate use (CU) study involving human advanced AD patients. […] The administration comprised three consecutive weeks of dosing followed by cessation for one week and then two additional weeks of dosing. Standard psychometric tests were used to measure cognitive functions and behaviors. The study also evaluated the relationship between the level of bryostatin's target, PKC epsilon, in the blood and the cognitive measurements.
Observed improvements included restored speech and word recognition, restored swallowing, lowered or prevented hallucinations, and improved complex motor functions. […] For example, the observed behavioral improvements included restoration of speech and word recognition, restoration of swallowing, disappearance of hallucinations, return of complex motor activity, including swimming, billiards, conversational interactions, and orientation in time and space.

Question: How did the “total PKC-ε levels” value turn out when `CCC/C=C/C=C/C(=O)O[C@H]1/C(=C/C(=O)OC)C[C@H]2C[C@H]([C@@H](C)O)OC(=O)C[C@H](O)C[C@@H]3C[C@H](OC(C)=O)C(C)(C)[C@](O)(C[C@@H]4C/C(=C/C(=O)OC)C[C@H](/C=C/C(C)(C)[C@]1(O)O2)O4)O3` [Bryostatin-1] was run?
Answer: increased
